Experimental data taken from patent US7473682B2, “Angiogenic peptides and uses thereof” (Ramot at Tel Aviv University Ltd., priority 2003, dated 2009).

Tests used:
ECs (HUVECs) = test: FACS binding of FITC-labeled synthetic peptides to ECs; design: species or system human; settings: 6 μg FITC labeled peptide, 10^5 ECs, 2 hours
Description: Fluorescein labeling of synthetic peptides—Fluorescein Isothiocyanate (FTIC, Pierce, Rockford, Ill.) is an amino-reactive probe that reacts in an alkine environment with primary amines to form a stable fluorescent derivative. 12.5 μl of FITC (10 mg/ml) were added per 1 mg of peptide diluted in 0.5 M bicarbonate buffer (pH 9.5) and agitated in the dark for 2 hours. 0.1 ml of 1.5 M hydroxilamine was then added per 1 ml of reaction mixture and agitated for an additional 30 minutes at room temperature. Unbound FITC was removed by dialysis in the presence of PBS.
Peptide binding to ECs—ECs were cultured in M199 supplemented with 10% FCS. For peptide binding assays, the cells were trypsinized and 10^5 cells were suspended in PBS supplemented with 5% FCS and 0.1% sodium azide. Cells were incubated for 2 hours (on ice, in the dark) in the presence of 1-6 μg of FITC-labeled peptides, following which the stained cells were washed twice with PBS. Samples were analyzed by FACS (FACScan, Becton Dickinson, San Jose, Calif., USA). For control, 0.5×10^6 of PBLs were utilized.
FACS analysis of peptide binding to ECs with and without hypoxia treatment—ECs were exposed to hypoxia conditions and then prepared for FACS analysis as described in Example 3, hereinabove. […] Samples were analyzed by Fluorescence Activated Cell Sorter (FACScan Beckton Dickinson, Calif., USA).

HUVECs (ECs) = test: Proliferation of ECs (HUVECs) in the presence of synthetic peptides ([^3H]-Thymidine uptake); assay type: cell-based, human; settings: for Highest proliferative response of ECs, fold increase / [^3H]-Thymidine uptake in ECs: normoxia; for [^3H]-Thymidine uptake in ECs: 0.05-100 ng/ml; for [^3H]-Thymidine uptake in ECs / [^3H]-Thymidine uptake / proliferation of ECs under and following hypoxia: 24 hours
Description: Proliferation of ECs in the presence of synthetic peptides—ECs were incubated in the presence of EBM-2 medium containing supplements (Cambrex BioWhittaker Cell Biology Products, Walkersville, USA). Cells were passaged every 3 days by harvesting cells with 0.25% […] (Biological Industries) and re-plating the cells at a concentration of 10^4 cells per a 25 cm^2 flask. ECs from passage 3 were used for proliferation experiments.
ECs (12×10^3 cells/well) were seeded on 24-well plates in EBM-2 medium containing supplements. Following a 24-hours incubation, cells were subjected to 24 hours of starvation in supplements-free medium (SFM). Synthetic peptides (SP, LT, TR, and VL) were each added at concentrations of 0.05, 0.1, 1, 10, or 100 ng/ml for 24 hours. For a proliferation assay, 2 μCi/well of [^3H]-Thymidine (SIGMA, Rehovot, Israel) were added for a 6-hour incubation, following which the plates were washed 3 times with PBS. For cell lysis, the plates were incubated for 15 minutes at 37° C. with 300 μl/well of 0.5 M NaOH. Subsequently, cell lysates were transferred to scintillation vials containing 2 ml of scintillation liquid (Ultima Gold, Packard Bioscience, Meriden, Conn., USA) and counted (cpm/min) in a β counter (Scintillation β Counter 1600 TR, Packard A Camberra Company, Meriden, Conn., USA).
Synthetic peptides induced proliferation or migration after and under hypoxia treatment—Cell proliferation or migration assays were performed as described in Example 3, hereinabove, except that cells were divided to 3 groups: control cells, cells after exposure to hypoxia conditions or cells proliferating under hypoxia conditions. For cell proliferation assays, ECs were incubated with QF, LT and SP and MVECs were incubated with LT, SP, and YR. For cell migration assays, ECs were incubated with EBM-2 and MVECs were incubated with EBM-MV media.

rat ischemic hind limb = test: Rat ischemic hind-limb model, laser-Doppler blood flow; assay type: in vivo; settings: 600 μg peptide, days 2, 6, 9 and 13
Description: Rat ischemic hind-limb model and laser-Doppler imager analysis—A rat ischeric hind limb model was used for evaluation of the in vivo potential of angiogenesis induced by the selected synthetic peptides. Ischemia was created in the rat left hind limb by ligation the femoral artery. The right hind limb served as a control. A day after the operation each of the peptides was injected into two sites close to the ligation and one site distal to the ligation. Each rat was treated with each of the peptides in a total amount of 600 μg.
The blood flow was measured using a Laser Doppler Blood Flow analyzer (MoorLDI, Moor Instrument, Wilmington, Del.) at 2, 6, 9 and 13 days after peptides injections. The average perfusion of each limb was computed and blood flow was expressed as the ischemic (left)/control (right) blood flow ratio.

| Sequence | Binding to ECs exposed to hypoxia compared with normoxia (ECs (HUVECs)) | Increase of EC proliferation after hypoxia (HUVECs (ECs); 10 ng/ml) | Highest proliferative response of ECs, fold increase (HUVECs (ECs); 10 ng/ml) | [^3H]-Thymidine uptake in ECs (HUVECs (ECs)) | [^3H]-Thymidine uptake / proliferation of ECs under and following hypoxia (HUVECs (ECs)) | Increase of EC proliferation under hypoxia (HUVECs (ECs); under hypoxia, 1 ng/ml) | Median flux of the ischemic leg/control leg (rat ischemic hind limb) | Highest proliferative response of ECs, fold increase (HUVECs (ECs); 1 ng/ml) |
| --- | --- | --- | --- | --- | --- | --- | --- | --- |
| LLADTTHHRPWT (Phage displayed peptide) [LT] | increased binding | 3.5 fold | 1.7 fold | significant dose-dependent increase | significant dose-dependent increase | 1.7 fold | – | – |
| QPWLEQAYYSTF (Phage displayed peptide) [QF] | – | – | – | – | did not show increase in proliferation | – | 112.5% | – |
| SAHGTSTGVPWP (Phage displayed peptide) | increased binding | 2 fold | 1.6 fold | significant dose-dependent increase | significant dose-dependent increase | – | – | – |
| TLPWLEESYWRP (Phage displayed peptide) [TR] | – | – | 1.8 fold | significant dose-dependent increase | – | – | – | – |
| VPWMEPAYQRFL (Phage displayed peptide) [VL] | – | – | – | significant dose-dependent increase | – | – | – | 1.8 fold |
| YPHIDSLGHWRR (Phage displayed peptide) [YR] | – | – | – | – | – | – | 108.2% | – |
